For nine molecules, AC50 results are on record in ChEMBL document CHEMBL5291721, “A preclinical secondary pharmacology resource illuminates target-adverse drug reaction associations of marketed drugs” (Nat Commun, 2023).

Experiment [1] has as its target T1, Alpha-2A adrenergic receptor (Homo sapiens, UniProt P08913).
T1 sequence (P08913 whole entry): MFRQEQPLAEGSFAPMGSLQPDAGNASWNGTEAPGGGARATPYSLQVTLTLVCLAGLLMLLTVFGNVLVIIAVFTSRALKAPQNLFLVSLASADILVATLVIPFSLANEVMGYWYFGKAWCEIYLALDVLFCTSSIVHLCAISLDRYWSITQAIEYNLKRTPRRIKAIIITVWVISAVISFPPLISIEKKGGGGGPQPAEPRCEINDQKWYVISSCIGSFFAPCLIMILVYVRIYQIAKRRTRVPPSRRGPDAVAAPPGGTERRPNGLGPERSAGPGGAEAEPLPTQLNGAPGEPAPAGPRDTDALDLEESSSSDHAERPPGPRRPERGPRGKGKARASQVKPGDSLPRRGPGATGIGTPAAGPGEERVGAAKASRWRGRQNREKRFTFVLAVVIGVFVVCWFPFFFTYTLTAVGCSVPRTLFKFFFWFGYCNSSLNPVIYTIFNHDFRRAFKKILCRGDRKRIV
The format is functional, cell-based.

The target in experiment [2] is T2, Amine oxidase [flavin-containing] A (Homo sapiens, UniProt P21397).
T2 sequence (P21397 whole entry): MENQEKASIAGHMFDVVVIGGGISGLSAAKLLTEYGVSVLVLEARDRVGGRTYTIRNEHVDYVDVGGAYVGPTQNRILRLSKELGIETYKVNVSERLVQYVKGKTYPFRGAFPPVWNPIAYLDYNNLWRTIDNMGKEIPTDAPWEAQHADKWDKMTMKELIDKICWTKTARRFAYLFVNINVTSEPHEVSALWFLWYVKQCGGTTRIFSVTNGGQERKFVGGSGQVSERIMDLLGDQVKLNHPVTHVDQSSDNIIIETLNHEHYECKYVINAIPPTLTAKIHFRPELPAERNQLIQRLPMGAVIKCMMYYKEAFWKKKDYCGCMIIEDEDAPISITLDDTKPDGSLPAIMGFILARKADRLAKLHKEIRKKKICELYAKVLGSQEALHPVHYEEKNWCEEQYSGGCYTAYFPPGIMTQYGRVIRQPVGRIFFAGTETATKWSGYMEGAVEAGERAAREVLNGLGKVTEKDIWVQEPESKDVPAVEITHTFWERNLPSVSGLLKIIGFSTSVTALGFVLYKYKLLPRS
The format is functional.

Experiment [3] concerns the target Growth hormone secretagogue receptor type 1 (Homo sapiens, UniProt Q92847).
Experiment [4] has as its target Motilin receptor (Homo sapiens, UniProt O43193).
Experiment [5] addresses Melanocortin receptor 3 (Homo sapiens, UniProt P41968).
Experiment [6] has as its target Vasopressin V2 receptor (Homo sapiens, UniProt P30518).
Experiment [7] concerns the target Delta-type opioid receptor (Homo sapiens, UniProt P41143).
Experiment [8] concerns the target Neuronal acetylcholine receptor subunit alpha-4 (Homo sapiens, UniProt P43681).
In experiment [9] the target is D(3) dopamine receptor (Homo sapiens, UniProt P35462).
Chain of D(3) dopamine receptor (P35462 whole entry): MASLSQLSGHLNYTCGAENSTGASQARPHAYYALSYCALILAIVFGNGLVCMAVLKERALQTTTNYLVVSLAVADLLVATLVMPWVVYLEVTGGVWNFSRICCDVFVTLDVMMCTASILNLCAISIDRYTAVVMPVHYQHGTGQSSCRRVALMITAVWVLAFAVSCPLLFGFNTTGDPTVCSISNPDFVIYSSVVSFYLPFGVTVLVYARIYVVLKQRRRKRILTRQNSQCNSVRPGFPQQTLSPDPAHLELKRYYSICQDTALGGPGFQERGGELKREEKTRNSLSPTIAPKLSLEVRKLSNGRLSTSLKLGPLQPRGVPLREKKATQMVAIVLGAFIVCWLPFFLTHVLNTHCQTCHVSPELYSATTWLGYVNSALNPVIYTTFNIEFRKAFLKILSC
For experiment [10], the target named is T3, B2 bradykinin receptor (Homo sapiens, UniProt P30411).
T3 sequence (P30411 whole entry): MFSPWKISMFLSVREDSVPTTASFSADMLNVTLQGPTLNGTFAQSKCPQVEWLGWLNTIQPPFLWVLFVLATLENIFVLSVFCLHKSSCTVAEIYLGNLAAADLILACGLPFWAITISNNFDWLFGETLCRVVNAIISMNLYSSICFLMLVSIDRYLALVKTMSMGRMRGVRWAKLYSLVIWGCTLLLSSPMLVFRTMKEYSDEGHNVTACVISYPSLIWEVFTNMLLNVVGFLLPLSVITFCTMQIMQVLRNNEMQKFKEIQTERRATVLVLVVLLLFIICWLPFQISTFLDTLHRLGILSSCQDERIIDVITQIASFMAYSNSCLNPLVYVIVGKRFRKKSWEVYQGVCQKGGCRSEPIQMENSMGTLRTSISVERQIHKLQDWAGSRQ

Experiment [11] addresses T4, Type-1 angiotensin II receptor (Homo sapiens, UniProt P30556).
T4 sequence (P30556 whole entry): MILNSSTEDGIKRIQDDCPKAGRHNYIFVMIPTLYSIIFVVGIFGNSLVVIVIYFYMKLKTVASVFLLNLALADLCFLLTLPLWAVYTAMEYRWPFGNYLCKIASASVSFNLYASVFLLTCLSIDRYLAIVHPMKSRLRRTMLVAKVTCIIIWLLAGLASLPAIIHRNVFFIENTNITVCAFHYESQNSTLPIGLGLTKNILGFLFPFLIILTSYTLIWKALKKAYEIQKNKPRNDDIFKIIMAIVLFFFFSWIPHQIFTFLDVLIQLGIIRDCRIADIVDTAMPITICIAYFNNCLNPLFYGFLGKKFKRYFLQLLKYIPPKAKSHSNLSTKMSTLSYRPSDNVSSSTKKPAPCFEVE

Experiment [12] deals with T5, Neuropeptide Y receptor type 1 (Homo sapiens, UniProt P25929).
T5 sequence (P25929 whole entry): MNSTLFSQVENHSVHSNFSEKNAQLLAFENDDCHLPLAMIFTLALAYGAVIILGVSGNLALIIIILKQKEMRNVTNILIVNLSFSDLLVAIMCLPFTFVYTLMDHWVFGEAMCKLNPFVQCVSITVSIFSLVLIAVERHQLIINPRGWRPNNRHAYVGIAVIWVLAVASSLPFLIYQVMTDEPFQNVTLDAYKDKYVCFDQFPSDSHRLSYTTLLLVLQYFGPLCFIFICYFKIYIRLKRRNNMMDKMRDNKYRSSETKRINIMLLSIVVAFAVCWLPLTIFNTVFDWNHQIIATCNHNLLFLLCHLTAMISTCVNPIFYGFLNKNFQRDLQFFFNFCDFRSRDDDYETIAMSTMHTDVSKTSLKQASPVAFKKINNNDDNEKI
The following applies: read-out: AC50.

In experiment [13] the target is Voltage-gated inwardly rectifying potassium channel KCNH2 (Homo sapiens, UniProt Q12809). The class given is functional.
Chain of Voltage-gated inwardly rectifying potassium channel KCNH2 (Q12809 whole entry): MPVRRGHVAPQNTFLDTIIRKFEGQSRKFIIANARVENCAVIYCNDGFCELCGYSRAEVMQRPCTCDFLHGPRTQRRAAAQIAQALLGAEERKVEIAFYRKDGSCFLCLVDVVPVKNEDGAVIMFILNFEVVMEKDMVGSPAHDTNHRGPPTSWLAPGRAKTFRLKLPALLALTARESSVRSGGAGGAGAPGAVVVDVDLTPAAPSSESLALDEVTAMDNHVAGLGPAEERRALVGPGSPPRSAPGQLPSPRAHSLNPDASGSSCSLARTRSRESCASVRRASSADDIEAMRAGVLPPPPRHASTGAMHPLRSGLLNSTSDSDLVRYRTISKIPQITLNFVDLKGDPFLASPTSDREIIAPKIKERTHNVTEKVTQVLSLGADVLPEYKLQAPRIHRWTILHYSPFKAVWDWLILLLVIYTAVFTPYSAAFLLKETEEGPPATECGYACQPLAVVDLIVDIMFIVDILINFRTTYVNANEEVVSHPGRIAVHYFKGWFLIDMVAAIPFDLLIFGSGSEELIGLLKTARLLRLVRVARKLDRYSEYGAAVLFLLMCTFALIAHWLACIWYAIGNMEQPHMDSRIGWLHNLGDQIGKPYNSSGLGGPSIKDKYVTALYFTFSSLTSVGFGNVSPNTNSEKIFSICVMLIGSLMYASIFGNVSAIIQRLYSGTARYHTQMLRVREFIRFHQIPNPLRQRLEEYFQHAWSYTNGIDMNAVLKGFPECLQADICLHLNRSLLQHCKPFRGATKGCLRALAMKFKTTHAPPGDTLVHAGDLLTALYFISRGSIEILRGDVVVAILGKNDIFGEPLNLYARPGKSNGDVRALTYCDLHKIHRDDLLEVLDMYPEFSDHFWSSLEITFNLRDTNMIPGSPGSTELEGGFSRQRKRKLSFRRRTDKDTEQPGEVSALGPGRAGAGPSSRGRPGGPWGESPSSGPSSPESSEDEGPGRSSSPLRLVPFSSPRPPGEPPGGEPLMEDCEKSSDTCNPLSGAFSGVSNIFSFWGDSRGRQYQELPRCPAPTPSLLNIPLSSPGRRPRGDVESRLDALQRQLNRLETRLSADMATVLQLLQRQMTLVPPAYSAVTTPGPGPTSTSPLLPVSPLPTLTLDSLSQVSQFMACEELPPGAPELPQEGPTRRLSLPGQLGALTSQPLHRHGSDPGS
For experiment [14], the target named is Sodium-dependent noradrenaline transporter (Homo sapiens, UniProt P23975).
Chain of Sodium-dependent noradrenaline transporter (P23975 whole entry): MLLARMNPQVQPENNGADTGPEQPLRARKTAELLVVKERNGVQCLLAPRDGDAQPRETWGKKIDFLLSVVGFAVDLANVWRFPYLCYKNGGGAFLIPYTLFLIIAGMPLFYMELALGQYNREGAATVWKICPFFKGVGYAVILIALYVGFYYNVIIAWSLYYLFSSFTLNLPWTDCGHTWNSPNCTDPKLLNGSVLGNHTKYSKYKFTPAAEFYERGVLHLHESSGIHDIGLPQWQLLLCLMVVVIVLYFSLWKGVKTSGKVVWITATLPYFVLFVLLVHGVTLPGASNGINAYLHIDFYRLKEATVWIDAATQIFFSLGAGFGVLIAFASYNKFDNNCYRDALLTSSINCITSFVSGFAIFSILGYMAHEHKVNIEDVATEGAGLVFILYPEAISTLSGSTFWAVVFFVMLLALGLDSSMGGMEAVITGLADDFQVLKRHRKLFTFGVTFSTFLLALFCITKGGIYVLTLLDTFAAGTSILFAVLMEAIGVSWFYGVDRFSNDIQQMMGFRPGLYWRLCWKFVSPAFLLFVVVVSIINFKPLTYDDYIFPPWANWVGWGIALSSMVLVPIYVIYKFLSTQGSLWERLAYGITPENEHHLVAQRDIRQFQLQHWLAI
In experiment [15] the target is Adenosine receptor A2a (Homo sapiens, UniProt P29274).
Chain of Adenosine receptor A2a (P29274 whole entry): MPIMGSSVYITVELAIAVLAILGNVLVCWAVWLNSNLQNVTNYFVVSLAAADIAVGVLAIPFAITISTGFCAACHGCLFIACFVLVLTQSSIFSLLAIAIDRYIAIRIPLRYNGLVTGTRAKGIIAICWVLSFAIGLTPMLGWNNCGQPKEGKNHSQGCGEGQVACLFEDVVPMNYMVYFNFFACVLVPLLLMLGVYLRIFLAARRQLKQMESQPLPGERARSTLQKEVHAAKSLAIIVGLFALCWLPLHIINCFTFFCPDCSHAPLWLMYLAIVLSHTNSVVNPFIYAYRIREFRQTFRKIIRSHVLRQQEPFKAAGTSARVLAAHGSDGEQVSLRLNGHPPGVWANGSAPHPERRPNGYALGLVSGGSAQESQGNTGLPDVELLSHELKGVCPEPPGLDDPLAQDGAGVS
Note: assay procedure not described here.

Chain of Growth hormone secretagogue receptor type 1 (Q92847 whole entry): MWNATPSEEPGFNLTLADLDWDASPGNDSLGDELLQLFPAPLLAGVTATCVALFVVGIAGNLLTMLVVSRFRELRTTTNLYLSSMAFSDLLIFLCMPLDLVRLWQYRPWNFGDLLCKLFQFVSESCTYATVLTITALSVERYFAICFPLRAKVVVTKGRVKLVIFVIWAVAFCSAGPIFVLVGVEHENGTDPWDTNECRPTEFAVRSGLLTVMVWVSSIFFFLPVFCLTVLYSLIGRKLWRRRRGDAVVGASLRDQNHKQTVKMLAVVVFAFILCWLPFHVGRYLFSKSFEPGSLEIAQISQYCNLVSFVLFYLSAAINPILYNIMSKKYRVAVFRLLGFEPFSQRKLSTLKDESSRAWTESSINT
Chain of Motilin receptor (O43193 whole entry): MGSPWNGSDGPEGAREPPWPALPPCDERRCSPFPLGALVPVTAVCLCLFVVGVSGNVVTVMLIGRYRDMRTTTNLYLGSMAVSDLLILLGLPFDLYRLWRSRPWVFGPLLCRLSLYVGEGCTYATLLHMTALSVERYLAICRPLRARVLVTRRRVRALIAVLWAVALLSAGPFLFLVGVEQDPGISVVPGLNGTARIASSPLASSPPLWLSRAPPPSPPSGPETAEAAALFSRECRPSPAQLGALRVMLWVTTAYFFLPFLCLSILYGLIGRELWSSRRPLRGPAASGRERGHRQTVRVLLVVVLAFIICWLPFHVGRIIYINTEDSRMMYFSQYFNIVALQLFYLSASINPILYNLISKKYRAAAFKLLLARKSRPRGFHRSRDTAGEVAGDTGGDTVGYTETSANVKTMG
Chain of Vasopressin V2 receptor (P30518 whole entry): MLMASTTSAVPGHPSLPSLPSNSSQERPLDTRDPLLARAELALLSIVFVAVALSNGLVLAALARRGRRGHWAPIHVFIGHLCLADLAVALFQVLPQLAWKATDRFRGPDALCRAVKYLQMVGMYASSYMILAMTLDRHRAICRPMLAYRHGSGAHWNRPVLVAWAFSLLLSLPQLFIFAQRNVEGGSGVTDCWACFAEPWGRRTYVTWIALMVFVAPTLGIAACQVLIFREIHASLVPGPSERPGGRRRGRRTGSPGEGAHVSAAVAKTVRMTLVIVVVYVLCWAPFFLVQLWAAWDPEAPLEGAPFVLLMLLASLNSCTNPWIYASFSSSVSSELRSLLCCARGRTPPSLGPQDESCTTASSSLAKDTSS
Chain of Melanocortin receptor 3 (P41968 whole entry): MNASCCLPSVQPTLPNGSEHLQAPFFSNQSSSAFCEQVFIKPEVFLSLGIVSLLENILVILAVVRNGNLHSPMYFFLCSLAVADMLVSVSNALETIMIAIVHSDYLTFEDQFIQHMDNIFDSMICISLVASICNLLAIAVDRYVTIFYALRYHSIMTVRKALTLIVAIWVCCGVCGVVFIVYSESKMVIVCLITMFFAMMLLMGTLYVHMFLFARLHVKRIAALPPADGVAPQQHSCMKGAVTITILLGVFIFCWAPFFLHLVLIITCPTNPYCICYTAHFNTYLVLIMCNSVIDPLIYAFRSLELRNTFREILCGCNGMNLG
Chain of Neuronal acetylcholine receptor subunit alpha-4 (P43681 whole entry): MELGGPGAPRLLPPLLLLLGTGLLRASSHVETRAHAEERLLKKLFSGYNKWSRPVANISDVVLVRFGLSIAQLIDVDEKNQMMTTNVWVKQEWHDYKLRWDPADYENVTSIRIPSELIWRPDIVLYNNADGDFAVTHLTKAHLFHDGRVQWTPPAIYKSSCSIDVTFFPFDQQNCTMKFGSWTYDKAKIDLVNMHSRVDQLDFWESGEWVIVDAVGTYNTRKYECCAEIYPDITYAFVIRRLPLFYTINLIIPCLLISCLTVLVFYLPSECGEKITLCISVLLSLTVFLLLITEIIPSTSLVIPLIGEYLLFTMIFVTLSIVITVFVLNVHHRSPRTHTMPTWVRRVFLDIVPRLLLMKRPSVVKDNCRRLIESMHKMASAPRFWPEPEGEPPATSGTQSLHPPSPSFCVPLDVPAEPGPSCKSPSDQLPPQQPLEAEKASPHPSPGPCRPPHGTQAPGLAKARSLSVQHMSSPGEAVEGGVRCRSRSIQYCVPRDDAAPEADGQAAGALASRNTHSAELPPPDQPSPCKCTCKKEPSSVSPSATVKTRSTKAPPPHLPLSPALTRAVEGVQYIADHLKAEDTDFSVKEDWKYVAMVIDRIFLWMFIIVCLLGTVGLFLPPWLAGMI

On to `CC(=O)N[C@@H](CS)C(=O)O` [ACETYLCYSTEINE], for which the AC50 in experiment [1], in experiment [2], in experiment [3], in experiment [4], in experiment [5] and in [6] was > 30 µM each time. Also, the AC50 in experiment [7], in experiment [8], in experiment [9], in experiment [10], in [11] and in experiment [12] was > 30 µM in each case. Further, the AC50 in [13], in experiment [14] and in experiment [15] was > 30 µM each time.

As to `C=CCNc1nc(NCC=C)nc(N2CCN(C(c3ccc(F)cc3)c3ccc(F)cc3)CC2)n1` [ALMITRINE], the AC50 in [1], in experiment [2], in experiment [3], in experiment [4], in [5] and in experiment [6] was > 30 µM each time. For the same molecule, the AC50 in [7], in experiment [8], in experiment [9], in experiment [10], in experiment [11] and in experiment [12] was > 30 µM throughout. The AC50 in experiment [13], in experiment [14] and in [15] was > 30 µM in each case.

On to `CN1CCC(=C2c3ccccc3CCc3cccnc32)CC1` [AZATADINE], for which the AC50 in experiment [1] is > 10 µM; in experiment [2], > 10 µM; in experiment [3], > 30 µM; in experiment [4], > 10 µM; in experiment [5] it was > 30 µM; in experiment [6], > 30 µM. The AC50 in experiment [7] was > 30 µM; in experiment [8], > 10 µM; in [9], > 10 µM; in [10] it was > 30 µM; in [11] it was > 30 µM; in experiment [12] it was > 30 µM. Further, the concentration at half-maximal activity (AC50) was 24.6 µM in experiment [13], > 30 µM in experiment [14] and > 30 µM in [15].

As to `CCCCC(=O)O[C@]1(C(=O)CO)[C@@H](C)C[C@H]2[C@@H]3CCC4=CC(=O)C=C[C@]4(C)[C@@]3(F)[C@@H](O)C[C@@]21C` [BETAMETHASONE VALERATE], the AC50 is > 10 µM in experiment [1]; > 10 µM in experiment [2]; > 30 µM in experiment [3]; > 10 µM in [4]; > 30 µM in experiment [5]; > 30 µM in experiment [6]. Moreover, the AC50 is > 30 µM in experiment [7]; > 10 µM in experiment [8]; > 30 µM in experiment [9]; > 30 µM in experiment [10]; > 30 µM in [11]; > 30 µM in [12]. Moreover, the AC50 in experiment [13], in experiment [14] and in experiment [15] was > 30 µM each time.

With `C/N=C(\NC)NCc1ccccc1` [BETHANIDINE], the AC50 in experiment [1], in experiment [2], in experiment [3], in [4], in experiment [5] and in experiment [6] was > 30 µM each time. For the same molecule, the half-maximal activity concentration (AC50) in [7], in experiment [8], in experiment [9], in experiment [10], in [11] and in experiment [12] was > 30 µM throughout. Besides, the AC50 in experiment [13], in experiment [14] and in experiment [15] was > 30 µM each time.

As to `COCC1=C(C(=O)O)N2C(=O)[C@@H](NC(=O)/C(=N\OC)c3csc(N)n3)[C@H]2SC1` [CEFPODOXIME], the AC50 in experiment [1], in experiment [2], in experiment [3], in experiment [4], in [5] and in experiment [6] was > 30 µM each time. Also, the AC50 in experiment [7], in experiment [8], in experiment [9], in experiment [10], in experiment [11] and in experiment [12] was > 30 µM in each case. The AC50 in experiment [13], in experiment [14] and in experiment [15] was > 30 µM in each case.

For the molecule `CC1OC2(CS1)CN1CCC2CC1` (stereo not given) [CEVIMELINE], the AC50 in experiment [1] is > 10 µM; in experiment [2], > 30 µM; in experiment [3] it was > 10 µM; in [4] it was > 10 µM; in experiment [5] it was > 10 µM; in experiment [6], > 10 µM. For the same molecule, the AC50 in experiment [7] is > 30 µM; in experiment [8] it was > 10 µM; in experiment [9] it was > 30 µM; in experiment [10], > 10 µM; in [11] it was > 10 µM; in [12] it was > 10 µM. The concentration at half-maximal activity (AC50) in experiment [13] was > 30 µM; in [14], > 10 µM; in experiment [15], > 10 µM.

Consider `CNC1=Nc2ccc(Cl)cc2C(c2ccccc2)=[N+]([O-])C1` [CHLORDIAZEPOXIDE], for which the AC50 in [1] was > 10 µM; in experiment [2], > 10 µM; in experiment [3], > 30 µM; in experiment [4], > 10 µM; in experiment [5] it was > 30 µM; in experiment [6] it was > 30 µM. Besides, the AC50 in experiment [7] is > 30 µM; in [8], > 10 µM; in experiment [9] it was > 30 µM; in experiment [10], > 30 µM; in experiment [11], > 30 µM; in experiment [12] it was > 30 µM. The AC50 in [13], in experiment [14] and in experiment [15] was > 30 µM in each case.

Turning to `Nc1ncn([C@H]2C[C@H](O)[C@@H](CO)O2)c(=O)n1` [DECITABINE], the AC50 in experiment [1], in experiment [2], in experiment [3], in [4], in experiment [5] and in [6] was > 30 µM throughout. Also, the AC50 in [7], in [8], in [9], in experiment [10], in [11] and in experiment [12] was > 30 µM each time. Moreover, the AC50 in [13], in experiment [14] and in experiment [15] was > 30 µM throughout.
